Where no end group is shown, it is not given here.
Columns and labels:
purified rabbit ACE = purified rabbit ACE in vitro; read-out: IC50, purified rabbit ACE (given as ACE inhibitory concentration); cited from earlier work
Text: Numerous reports have identified stable peptides with high ACE-inhibitory activity from pork dry-cured ham after gastrointestinal digestion. Four of them were synthetized chemically (KPVAAP, KAAAATP, KPGRP, and AAATP) for the current experimental studies with human endothelial cells.

[1] = system: ICAM-1 surface expression, EA.hy926 cells; assay: ICAM-1 surface expression by flow cytometry (MFI); type: cell-based, human; conditions: for ICAM-1 surface density (in words): 300 µM peptide + TNF-α vs TNF-α activated cells, all p < 0.05; for ICAM-1 MFI: preincubation with 300 µM peptide, then 100 ng/mL TNF-α, six independent experiments, mean ± SD, p vs TNF-α: BP1 0.03, BP2 0.009, BP3 0.09, BP4 0.04, control 71.36 ± 8.31
Method: EA.hy926 cells, the hybrid human umbilical vein endothelial cell line, were obtained from the American Type Culture Collection (ATCC® CRL2922™, Rockville, MD, USA). Cells were cultured in high glucose Dulbecco’s Modified Eagle’s Medium (DMEM), containing 10% heat-inactivated fetal bovine serum (FBS, Biowest, Riverside, CA, USA) and 50 U/mL of penicillin and 50 µg/mL streptomycin (Sigma Aldrich Chemical Co., Saint Louis, MO, USA). Cells were grown in 5% CO2 in a humidified air incubator at 37 °C. Subculture was performed when 90% confluence was reached.
(§1) EA.hy926 were seeded in six-well plates at 0.25 × 10^6 cells/well in DMEM supplemented with 5% FBS. Cells were treated with 300 µM of each peptide for 16 h. Then, 100 ng/mL TNF-α or 300 µM H2O2 were added for an additional 6 h or 24 h, respectively.
To measure adhesion molecule content in human endothelial cells by flow cytometry, the cell monolayer was detached and fixed before immunofluorescence labelling. The following antibodies were used per sample: 20 µL anti-ICAM-1/CD54-phycoerythrin (PE) (clone HA58, BD Biosciences, Franklin Lakes, NJ, USA) and 5 µL anti-VCAM-1/CD106-PerCP-Cy5.5 (clone 51–10C9; BD Biosciences, San Jose, CA, USA), according to the manufacturer’s protocol. Stained cells (10,000 events) were examined by flow cytometry (FACS Calibur, Becton Dickinson, Mountain View, CA, USA) in a simultaneous two-color analysis with FL2 (PE) and FL3 (PerCP-Cy5.5) channels. Markers were set according to the negative controls to quantify the percentage of positively stained cells. Mean Fluorescence Intensity (MFI) was calculated for each antigen (MFI of total stained cells-MFI of negative control cells).

[2] = system: ICAM-1 protein, EA.hy926 cells; assay: Intracellular ICAM-1 protein by western blot; type: cell-based, human; conditions: 300 µM peptide + 100 ng/mL TNF-α vs TNF-α stimulation; p < 0.01
Method: as §1
Supplementary Material and Methods
1.1. Human ACE Inhibitio n Assa y
Before transfection, the endothelial ACE expressio n level was very low and the p roduct of the enzymatic reaction undete ctable, and so a recombinant construct e ncodi ng the Myc-Tag fused to the ACE ge ne was used. T o overexpress the ACE enzyme, EA.hy926 cel ls were seeded in 24-well plates at 80,000 cells/well and transiently transfec ted with a human Ace ORF mammali an expression plasmid (Sinobiological, Beijing, China) using trans-it X2 reagent ( Myrus®, Madi son, […]
Wisconsin, USA). […] The effi ciency of […]
transfecti on was checked by immunofluorescence. Briefly, 48 h post-transfection, cells were fixed with 4% paraformaldehyd e in culture medi um for 15 min at room temperatur e, blocked with 1% bo vine seru m albumin (BSA) in phosph ate buffer for 30 min followed by 0.2% sapo nin for 30 min to permeabil ize the membr ane. […]
The mRNA level s of the target genes (ICAM-1, VCAM-1, IL-6, eNOS, SOD, catal ase, NADPH, BAX) were quantified by RT-PCR using Se nsiFAST SYBER Hi-ROX Kit (Bioline, Taunton, USA) with StepOnePlus Real-Time PCR Sy stem (Appl ied Bi osystems, Foster City, CA, USA) using speci fi c and vali dated pri mers (Si gma-Al drich Chemical Co., Saint Louis, MO, USA).
The tetr azolium assay (MTT) was used to estimate the cel l viability in the presence of synthetic pepti des (up to 600 µM) and 300 µM H2O2. […] The formazan crystals formed in the intact cel ls were dissol ved in 200 µL dimethyl sulfoxide (DMSO) for 30 min and the absorbance was measured in a micro plate reader at 570 nm and 620 nm of reference. Results wer e calculated as cel l viability (%) = average optic density (OD) of wells/ave rage OD of control wells. […]

Substance | IC50 (purified rabbit ACE) [µM] | ICAM-1 surface density (in words) [1] | ICAM-1 MFI [1] | ICAM-1 protein production (western blot) [2]
KAAAATP [BP2] | 25.6 | reduced ICAM-1 surface density | 1064.42 ± 32.02 | lower production of ICAM-1 protein
AAATP [BP4] | 100 | reduced ICAM-1 surface density | 926.01 ± 152.46 | lower production of ICAM-1 protein

Reference: paper PMC6747274, “Multifunctional Peptides from Spanish Dry-Cured Pork Ham: Endothelial Responses and Molecular Modeling Studies” (International Journal of Molecular Sciences, 2019)
